Laboratory results as given in patent EP0342558A2, “2-amino-4,5-methyleneadipic acid compounds for treatment of CNS disorders” (priority 1988, dated 1989).
Marks after values point to notes of the source that are not given here.

Columns and labels:
mungbean seedling growth = conditions: cited from earlier work
[1] = test system: 15-day-old chick embryo retina; conditions: 1 mM, incubated for 30 minutes in BSS, pilot studies; cited from earlier work
[2] = test system: 15-day-old chick embryo retina; conditions: agonist alone, 30 minutes, pilot experiments
Text: This assay is adapted from procedures described in literature sources [Olney, J.W., Price, M.T., Fuller, T.A., Labruyere, J., Samson, L., Carpenter, M., Mahan, K., "The Anti-Excitotoxic Effects of Certain Anesthetics, Analgesics and Sedative-Hypnotics", Neuroscience Letters, 68, 29-34, (1986)]. By an approach similar to that earlier described [Reif-Lehrer, L., Bergenthal, J. and Hanninen, L., "Effects of Monosodium Glutamate on Chick Embryo Retina in Culture", Invest. Ophthalmol., 14, 114-124, (1975)], 15-day-old chick embryos were decapitated and their eyes removed and cut into quadrants after excising the cornea and removing the lens, vitreous and iris. The retinal quadrants were then gently separated from the pigment epithelium and incubated for 30 minutes at 37°C in a standard balanced salt solution (BSS) to which test compounds, either excitatory amino acid agonists or potential antagonists or both, were added in various concentrations. As described elsewhere [Olney, J.W., Price, M.T., Samson, L. and Labruyere, J., "The Role of Specific Ions in Glutamate Neurotoxicity". Neurosci. Lett.. […]

NMDA = test: Glutamate binding assay, NMDA-specific L-[³H]glutamate binding to synaptic plasma membranes; conditions: 12.5 nM L-[³H]glutamate, SPM, 0-4°C, 10 minutes
Experimental: (§1) The purpose of this assay is to determine the binding affinity of a compound of Formula I for the three glutamic acid receptor sub-types. (NMDA, QUIS, Kainate). It is expected that a compound interacting with one of these sub-type receptors will mimic or antagonize the effect of the endogenous ligand and thereby have a memory enhancing effect or have a neuroprotective and/or anti-epileptic effects. This procedure was carried out as follows:
(§2) Synaptic plasma membranes (SPM) were prepared as previously described [Monahan, J.B. and Michel, J., "Identification and Characterization of an N-methyl-D-aspartate-specific L-[³H]glutamate Recognition Site in Synaptic Plasma Membranes, J. Neurochem., 48, 1699-1708 (1987)]. The SPM were stored at a concentration of 10-15 mg/ml in 0.32M sucrose, 0.5 mM EDTA, 1mM MgSO₄, 5 mM Tris/SO₄, pH 7.4, under liquid nitrogen. The identity and purity of the subcellular fractions were confirmed by both electron microscopy and marker enzymes. Protein concentrations were determined by using a modification of the method of Lowry [Ohnishi, S.T. and Barr, J.K., "A Simplified Method of Quantitating Proteins Using the Biuret and Phenol Reagents", Anal. Biochem., 86, 193-197 (1978)]. The SPM were treated identically for the [³H]AMPA (QUIS), [³H]kainate and NMDA-specific L-[³H]glumatate binding assays. The SPM were thawed at room temperature, diluted twenty-fold with 50mM Tris/-acetate, pH 7.4, incubated at 37°C for 30 minutes, and centrifuged at 100,000 g for 15 minutes. The dilution, incubation, and centrifugation was repeated a total of three times. The basic procedure for the receptor subclass binding assays was similar. This general method involved adding the radioligand (12.5 nM L-[³H]glutamate; 0.5 nM [³H]kainate or 10nM L-[³H]AMPA) to the appropriate concentration of the test compound and initiating the assay by the addition of ice cold SPM (0.2-0.45 mg). The binding assays were performed in 1.5 ml centrifuge tubes with the total volume adjusted to 1.0 ml. Additions of test compounds were made in 50 mM Tris/acetate, pH 7.4 and incubations were carried out at 0-4°C. The incubation time for the NMDA and the AMPA binding assays was 10 minutes and for the kainate binding assay 60 minutes. The AMPA binding assay contained 100 mM KSCN. […] The supernatant was aspirated and the pelleted membranes dissolved in Beckman Ready-Protein scintillation cocktail and the samples counted on a Beckman LS 5800 or 3801 liquid scintillation counter with automatic corrections for quenching and counting efficiency. […] Radioligand binding to the SPM was analyzed using Scatchard and Hill transformations and the Ki values of the compounds determined using logit-log transformations. […]

QA = test: In vitro chick retina assay, protection against QA; format: cell-based; conditions: 30 minutes at 37°C; QA concentration not given
QUIS = test: Glutamate binding assay, [³H]AMPA (QUIS) binding to synaptic plasma membranes; conditions: 10nM [³H]AMPA, 100 mM KSCN, SPM, 0-4°C, 10 minutes
Experimental: as §1, §2

KA neurotoxicity = test: In vitro chick retina assay, protection against KA; format: cell-based; conditions: concentration required to completely prevent toxicity of KA (25 µM); 30 minutes at 37°C
Text: (§3) This assay is adapted from procedures described in literature sources [Olney, J.W., Price, M.T., Fuller, T.A., Labruyere, J., Samson, L., Carpenter, M., Mahan, K., "The Anti-Excitotoxic Effects of Certain Anesthetics, Analgesics and Sedative-Hypnotics", Neuroscience Letters, 68, 29-34, (1986)]. By an approach similar to that earlier described [Reif-Lehrer, L., Bergenthal, J. and Hanninen, L., "Effects of Monosodium Glutamate on Chick Embryo Retina in Culture", Invest. Ophthalmol., 14, 114-124, (1975)], 15-day-old chick embryos were decapitated and their eyes removed and cut into quadrants after excising the cornea and removing the lens, vitreous and iris. The retinal quadrants were then gently separated from the pigment epithelium and incubated for 30 minutes at 37°C in a standard balanced salt solution (BSS) to which test compounds, either excitatory amino acid agonists or potential antagonists or both, were added in various concentrations. As described elsewhere [Olney, J.W., Price, M.T., Samson, L. and Labruyere, J., "The Role of Specific Ions in Glutamate Neurotoxicity". Neurosci. Lett.. […] After incubation for 30 minutes, the retinal quadrants were fixed by immersion in phosphate-buffered solution containing 1.5% glutaraldehyde and 1% paraformaldehyde, then additionally fixed in 1% osmium tetroxide and embedded in araldite, allowing sections to be cut for either light or electron microscopy [Olney, J.W., "Glutamate-Induced Retinal Degeneration in Neonatal Mice. Electron Microscopy of the Acutely Evolving Lesion", J. Neuropathol. Exp. Neurol., 28, 455-474, (1969)]. […] Neurosci. […] For purposes of the present study, NMDA and KA were the agonists employed and numerous potential antagonists were tested at various concentrations for their ability to prevent NMDA or KA neurotoxicity. […] Internal controls on each experiment consisted of at least 6 specimens being incubated with agonist alone (NMDA 200 µM or KA 25 µM). […]

NMDA neurotoxicity = test: In vitro chick retina assay, protection against NMDA; format: cell-based; conditions: for % protection vs NMDA: NMDA 200 µM; for Antagonist activity vs NMDA: concentration required to completely prevent toxicity of NMDA (200 µM), 30 minutes at 37°C
Text: as §3

Kainate = test: Glutamate binding assay, [³H]kainate binding to synaptic plasma membranes; conditions: 0.5 nM [³H]kainate, SPM, 0-4°C, 60 minutes
Experimental: as §1, §2

[3] = test system: rat brain synaptic membranes (SPM); test: [³H]TCP modulation assay; format: binding
Experimental: The effect on [³H]TCP (1-[1-(2-thienyl)-cyclohexyl]piperidine) binding was measure in rat brain synaptic membranes (SPM) prepared as previously described (J.B. Monahan and J. Michel; J. Neurochem., 48, 1699-1708, (1987)). Prior to their use in the binding assay, frozen SPM were thawed, diluted twenty fold with 50 mM Tris/acetate, pH 7.4 containing 0.04% (v/v) Triton X-100, incubated for 30 min., at 37°C and centrifuged at 95,000 xspg for 15 min. The Triton X-100 treated SPM were washed with 5 mM Tris/HCl, pH 7.4 and centrifuged a total of six times. The compounds of the invention were incubated with SPM (0.2-0.4 mg protein) and 2 nM [³H]TCP in a total volume of 0.5 ml of 5 mM Tris/HCl buffer pH 7.4 at 25°C for 60 min. The samples were filtered through glass fiber filters (Schleicher & Schuell #32) which have been pretreated with 0.05% (v/v) polyethylenimine, washed with 2 ml of ice-cold 5 mM Tris/HCl buffer, and then counted on a Beckman LS 5800 liquid scintillation counter with automatic corrections for quenching and counting efficiency. Antagonist character was defined as the ability of the test compound to inhibit [³H]TCP binding in the presence of 1 µM L-glutamate, while agonist character is shown by stimulation of either basal [³H]TCP binding or the binding in the presence of 10 µM D-AP7, a specific competitive NMDA antagonist. Non specific binding was defined as the residual binding in the presence of 60 µM phencyclidine.

Question: For `NC(C(=O)O)[C@@H]1C[C@@H]1C(=O)O` (relative stereo) [cis-α-(carboxycyclopropyl)glycine], which “inhibition of mungbean seedling growth” value (mungbean seedling growth) is on record?
Answer: potent inhibitor

Question: For `N[C@@H](CCC(=O)O)C(=O)O` [Glu, Glutamate], which retinal lesion [1] is on record?
Answer: a fully developed lesion occurs

Question: With `C=C(C)[C@H]1CN[C@H](C(=O)O)[C@H]1CC(=O)O` [KA, Kainate] as the compound, how does the “lowest concentrations required to consistently obtain fully developed retinal lesions” value [2] read?
Answer: 25 µM

Question: For `CN[C@H](CC(=O)O)C(=O)O` [NMDA, N-methyl-D-aspartate], which “lowest concentrations required to consistently obtain fully developed retinal lesions” value [2] is on record?
Answer: 200 µM

Question: With `N[C@H](CC1CC1C(=O)O)C(=O)O` (stereo partly drawn) [cis-D-2-amino-4,5-methyleneadipic acid, Cis-D-2-amino-4,5-methyleneadipic acid] as the compound, how does the Ki (NMDA) read?
Answer: 1.9 µM

Question: What about the “Antagonist activity vs QA” value (QA) of the same compound?
Answer: >500 µM

Question: And the Ki (QUIS)?
Answer: > 300 µM

Question: What about the “Antagonist activity vs KA” value (KA neurotoxicity) of the same compound?
Answer: >500 µM

Question: And the “% protection vs NMDA” value (NMDA neurotoxicity; compound at 10 µM)?
Answer: 10(0%)*

Question: And the “% protection vs NMDA” value (NMDA neurotoxicity; compound at 25 µM)?
Answer: 25(33%)*

Question: And the “% protection vs NMDA” value (NMDA neurotoxicity; compound at 50 µM)?
Answer: 50(66%)*

Question: And the “% protection vs NMDA” value (NMDA neurotoxicity; compound at >75 µM)?
Answer: 100%

Question: What about the “Antagonist activity vs NMDA” value (NMDA neurotoxicity) of the same compound?
Answer: > 75 µM

Question: And the “Binding Ki KA” value (Kainate)?
Answer: 13.0 µM

Question: And the “maximal stimulation of [³H]TCP binding” value ([3]; compared with the full agonist glutamate)?
Answer: substantially less than that shown for the full agonist glutamate

Question: And the “[³H]TCP Bound” value ([3]; compound 100 µM, in presence of D-AP7 (10µM), control without compound 5016)?
Answer: 11453 DPM

Question: And the “[³H]TCP Bound” value ([3]; compound 100 µM, in presence of L-Glutamate (1µM), control without compound 15466)?
Answer: 12265 DPM

Question: And the “[³H]TCP Bound” value ([3]; compound 200 µM, in presence of D-AP7 (10µM), control without compound 5016)?
Answer: 11161 DPM

Question: What about the “[³H]TCP Bound” value ([3]; compound 200 µM, in presence of L-Glutamate (1µM), control without compound 15466) of the same compound?
Answer: 11880 DPM

Question: What about the “[³H]TCP Bound” value ([3]; compound 400 µM, in presence of D-AP7 (10µM), control without compound 5016) of the same compound?
Answer: 9345 DPM

Question: And the “[³H]TCP Bound” value ([3]; compound 400 µM, in presence of L-Glutamate (1µM), control without compound 15466)?
Answer: 9622 DPM

Question: And the “effect on quantity of [³H]TCP bound” value ([3]; in the presence of D-APH)?
Answer: agonist effect

Question: What about the “effect on quantity of [³H]TCP specifically bound” value ([3]; in the presence of L-glutamic acid) of the same compound?
Answer: antagonist effect

Question: For `N[C@@H](CC1CC1C(=O)O)C(=O)O` (stereo partly drawn) [cis-L-2-amino-4,5-methyleneadipic acid, Cis-L-2-amino-4,5-methyleneadipic acid], which Ki (NMDA) is on record?
Answer: 14.2 µM

Question: And the “Antagonist activity vs QA” value (QA)?
Answer: >500 µM

Question: And the Ki (QUIS)?
Answer: > 300 µM

Question: What about the “Antagonist activity vs KA” value (KA neurotoxicity) of the same compound?
Answer: >500 µM

Question: And the “Antagonist activity vs NMDA” value (NMDA neurotoxicity)?
Answer: >500 µM

Question: What about the “Binding Ki KA” value (Kainate) of the same compound?
Answer: 23.0 µM

Question: With `N[C@H](CC1CC1C(=O)O)C(=O)O` (stereo partly drawn) [trans-D-2-amino-4,5-methyleneadipic acid, Trans-D-2-amino-4,5-methyleneadipic acid] as the compound, how does the Ki (NMDA) read?
Answer: 2.2 µM

Question: And the “Antagonist activity vs QA” value (QA)?
Answer: >500 µM

Question: And the Ki (QUIS)?
Answer: > 300 µM

Question: What about the “Antagonist activity vs KA” value (KA neurotoxicity) of the same compound?
Answer: >500 µM

Question: What about the “% protection vs NMDA” value (NMDA neurotoxicity; compound at 50 µM) of the same compound?
Answer: 50(0%)*

Question: And the “% protection vs NMDA” value (NMDA neurotoxicity; compound at 75 µM)?
Answer: 75(66%)*

Question: What about the “% protection vs NMDA” value (NMDA neurotoxicity; compound at >125 µM) of the same compound?
Answer: 100%

Question: And the “Antagonist activity vs NMDA” value (NMDA neurotoxicity)?
Answer: > 125 µM

Question: What about the “Binding Ki KA” value (Kainate) of the same compound?
Answer: 25.0 µM

Question: Which Ki (NMDA) does the source give for `N[C@@H](CC1CC1C(=O)O)C(=O)O` (stereo partly drawn) [trans-L-2-amino-4,5-methyleneadipic acid, Trans-L-2-amino-4,5-methyleneadipic acid] here?
Answer: 2.5 µM

Question: And the “Antagonist activity vs QA” value (QA)?
Answer: >500 µM

Question: And the Ki (QUIS)?
Answer: > 300 µM

Question: And the “Antagonist activity vs KA” value (KA neurotoxicity)?
Answer: >500 µM

Question: And the “Antagonist activity vs NMDA” value (NMDA neurotoxicity)?
Answer: >500 µM

Question: What about the “Binding Ki KA” value (Kainate) of the same compound?
Answer: 37.0 µM
